In patent publication US20070161648A1, “Substituted dihydro-isoindolones useful in treating kinase disorders” (priority 2005, published 2007):

How the values were obtained:
VEGF-R2 kinase domain = target: T1, VEGF-R2 kinase domain (Rattus norvegicus, UniProt O08775); experiment: VEGF-R2 screening assay (33P-ATP FlashPlate kinase assay); format: biochemical; conditions: for IC50: 10 μM ATP; for inhibition at 100 µM: single test concentration 100 μM
T1 construct: polyhistidine (N)
Procedure: (§1) 70 μL of the kinase reaction mixture was dispensed into the well of a streptavidin coated FlashPlate™ (Cat. # SMP103, NEN, Boston, Mass.).
(§2) Test compound stock in 100% DMSO (1 μL) was added to the wells resulting in a final concentration of 1% DMSO in the reaction with a 100 μL final reaction volume. Each enzyme was diluted in 50 mM Tris-HCl pH=8.0, 0.1% BSA and 30 μL was added to each well to initiate the reaction. The reaction was incubated for one hour at 30° C. At the end of the 1 hr incubation, the reaction was terminated by aspirating the mixture from the plate and washing the wells twice with PBS containing 100 mM EDTA. The biotinylated peptide substrate became immobilized on the Flashplate™ and the incorporation of ^33P-γ-ATP was measured by reading the plate on a scintillation counter. Inhibition of the enzymatic activity was measured by observing a reduced amount of ^33P-γ-ATP incorporated into the immobilized peptide.
The assay used 150 ng of the N-terminal biotinylated peptide biotin-[…]-amide (VEGF-R2) per well.
(§3) A maximum and minimum signal for the assay was determined on each plate. The percent inhibition of a test compound was calculated according to the formula: [formula]

Aurora-A = target: T2, Aurora-A (Mus musculus, UniProt P97477); experiment: Aurora-A screening assay (33P-ATP FlashPlate kinase assay); format: biochemical, murine; conditions: for IC50: 10 μM ATP; for inhibition at 10 µM: single test concentration 10 μM; for inhibition at 100 µM: single test concentration 100 μM
T2 construct: followed by the full length protein encoding the murine Aurora-A; polyhistidine (N); made in house; host or cells: Sf9 insect cells
T2 sequence (P97477 1-395): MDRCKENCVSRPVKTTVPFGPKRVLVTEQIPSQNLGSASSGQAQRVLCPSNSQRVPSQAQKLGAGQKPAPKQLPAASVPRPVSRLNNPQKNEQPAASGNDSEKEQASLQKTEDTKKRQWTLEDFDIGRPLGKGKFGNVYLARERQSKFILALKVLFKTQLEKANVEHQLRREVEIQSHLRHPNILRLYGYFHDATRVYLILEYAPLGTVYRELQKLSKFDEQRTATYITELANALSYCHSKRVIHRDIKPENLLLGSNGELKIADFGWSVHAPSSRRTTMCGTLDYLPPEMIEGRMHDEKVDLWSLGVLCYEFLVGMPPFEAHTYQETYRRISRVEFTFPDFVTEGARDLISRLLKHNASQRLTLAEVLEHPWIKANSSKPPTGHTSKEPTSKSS
Procedure: as §1, §2
Aurora-A is a fusion protein containing a polyhistidine tag at the N terminus followed by the full length protein encoding the murine Aurora-A (Accession number GB BC014711) expressed and purified from sf9 insect cells. The assay used 400 ng of the N-terminal biotinylated peptide biotin-[…]-amide (Aurora-A) per well.
as §3

[1] = system: HeLa cervical adenocarcinoma; experiment: Cell proliferation inhibition assay (14C-thymidine incorporation), HeLa; format: cell-based; conditions: Homo sapiens
Description: (§4) The ability of a test compound to inhibit unregulated cell proliferation may be determined by measuring incorporation of ^14C-labelled thymidine into newly synthesized DNA within cell lines derived from carcinomas originating from several tissues. Accordingly, the effect of a test compound on proliferation of cells with a variety of phenotypes may be determined.
(§5) Carcinoma cell lines used include the HeLa cervical adenocarcinoma from the American Type Culture Collection (ATCC Cat. #CCL2), A375 malignant melanoma (ATCC Cat. #CRL-1619) and HCT-116 colon carcinoma (ATCC Cat. #CCL-247).
(§6) The carcinoma cells are trypsinized and counted. The cells (3000-8000 count) are added to each well of a 96-well CytoStar tissue culture treated scintillating microplate (Amersham #RPNQO160) in complete medium (100 μL) and the plate is then incubated in complete medium for 24 hrs at 37° C. in an inert atmosphere containing 5% CO2.
(§7) Test compound (1 μL) in 100% DMSO is added to the plate test-wells with DMSO only added to control-wells. The plate is incubated in complete medium for a second 24 hr period at 37° C. in an atmosphere containing 5% CO2.
(§8) An aliquot of a solution of Methyl ^14C-thymidine (56 mC/mmol) (NEN #NEC568 or Amersham #CFA532) and complete medium (20 uL to provide 0.2 μCi/well) is then added to each well and the plate is incubated for a third 24 hr period at 37° C. in an atmosphere containing 5% CO2.
(§9) The plate contents are then discarded, the plate is washed twice with PBS (200 μL) and then PBS (200 μL) is added to each well. The plate is sealed and the degree of methyl ^14C-thymidine incorporation is quantified on a Packard Top Count.
(§10) For a series of test concentrations, the IC50 was derived by graphing percent inhibition against the log of the concentrations tested for a given compound with results shown in Table 2.

A375 malignant melanoma = experiment: Cell proliferation inhibition assay (14C-thymidine incorporation), A375; format: cell-based; conditions: Homo sapiens, A-375
Description: as §4, §5, §6, §7, §8, §9, §10

HCT-116 colon carcinoma = experiment: Cell proliferation inhibition assay (14C-thymidine incorporation), HCT116; format: cell-based; conditions: Homo sapiens
Description: as §4, §5, §6, §7, §8, §9, §10

[2] = read-out: Aurora-A percent inhibition
[3] = read-out: VEGF-R2 percent inhibition

T1 sequence (O08775 786-1343): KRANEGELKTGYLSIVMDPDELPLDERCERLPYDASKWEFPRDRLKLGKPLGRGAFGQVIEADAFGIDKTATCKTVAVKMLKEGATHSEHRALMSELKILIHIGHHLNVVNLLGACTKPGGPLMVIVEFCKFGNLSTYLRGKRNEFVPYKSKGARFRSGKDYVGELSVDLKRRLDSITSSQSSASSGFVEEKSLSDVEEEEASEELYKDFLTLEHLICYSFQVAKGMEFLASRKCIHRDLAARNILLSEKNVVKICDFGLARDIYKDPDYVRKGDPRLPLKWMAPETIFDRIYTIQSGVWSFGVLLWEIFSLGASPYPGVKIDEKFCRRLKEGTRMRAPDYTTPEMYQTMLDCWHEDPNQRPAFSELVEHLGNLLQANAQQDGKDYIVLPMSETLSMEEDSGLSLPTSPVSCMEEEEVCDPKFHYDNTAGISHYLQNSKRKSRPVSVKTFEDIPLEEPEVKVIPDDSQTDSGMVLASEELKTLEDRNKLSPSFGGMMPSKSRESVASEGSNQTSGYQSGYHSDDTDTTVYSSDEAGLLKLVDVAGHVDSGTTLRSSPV

Structure (SMILES): COc1ccc2c(c1)cc(-c1ccc([N+](=O)[O-])c3c1C(=O)NC3)n2C(=O)OC(C)(C)C [Cpd 15, 5-methoxy-2-(7-nitro-3-oxo-2,3-dihydro-1H-isoindol-4-yl)-indole-1-carboxylic acid tert-butyl ester]
- IC50 (VEGF-R2 kinase domain): 1.52 µM
- IC50 (Aurora-A): 0.27 µM

Structure (SMILES): COc1ccc2[nH]c(-c3ccc([N+](=O)[O-])c4c3C(=O)NC4)cc2c1 [Cpd 16, 7-(5-methoxy-1H-indol-2-yl)-4-nitro-2,3-dihydro-isoindol-1-one]
- IC50 (VEGF-R2 kinase domain): 0.0229 µM
- inhibition at 10 µM (Aurora-A; [2]): 52%
- IC50 [1]: 9.42 µM
- IC50 (A375 malignant melanoma): 5.23 µM
- IC50 (HCT-116 colon carcinoma): 3.09 µM

Structure (SMILES): COc1ccc2[nH]c(-c3ccc(N)c4c3C(=O)NC4)cc2c1 [Cpd 17, 4-amino-7-(5-methoxy-1H-indol-2-yl)-2,3-dihydro-isoindol-1-one]
- IC50 (VEGF-R2 kinase domain): 0.0532 µM
- IC50 (Aurora-A): 0.432 µM

Structure (SMILES): COc1ccc2[nH]c(-c3ccc(NC(C)=O)c4c3C(=O)NC4)cc2c1 [Cpd 18, N-[7-(5-methoxy-1H-indol-2-yl)-1-oxo-2,3-dihydro-1H-isoindol-4-yl]-acetamide]
- IC50 (VEGF-R2 kinase domain): > 100 µM
- inhibition at 100 µM (Aurora-A; [2]): 64%

Structure (SMILES): O=C1NCc2cccc(-c3cc4cc(OCc5ccccc5)ccc4[nH]3)c21 [Cpd 19, 7-(5-benzyloxy-1H-indol-2-yl)-2,3-dihydro-isoindol-1-one]
- IC50 (VEGF-R2 kinase domain): 11.3 µM
- IC50 (Aurora-A): 21.2 µM

Structure (SMILES): O=C1NCc2cccc(-c3c[nH]c4ccccc34)c21 [Cpd 20, 7-(1H-Indol-3-yl)-2,3-dihydro-isoindol-1-one]
- inhibition at 100 µM (VEGF-R2 kinase domain; [3]): 50%
- inhibition at 100 µM (Aurora-A; [2]): 60%

Structure (SMILES): COc1ccc2c(c1)cc(-c1cccc3c1C(=O)NC3=O)n2C(=O)OC(C)(C)C [Cpd 21, 2-(1,3-dioxo-2,3-dihydro-1H-isoindol-4-yl)-5-methoxy-indole-1-carboxylic acid tert-butyl ester]
- IC50 (VEGF-R2 kinase domain): 1.52 µM
- IC50 (Aurora-A): 0.27 µM
- IC50 [1]: 43 µM
- IC50 (A375 malignant melanoma): > 100 µM
- IC50 (HCT-116 colon carcinoma): > 100 µM

Structure (SMILES): COc1ccc2[nH]c(-c3cccc4c3C(=O)NC4=O)cc2c1 [Cpd 22, 4-(5-methoxy-1H-indol-2-yl)-isoindole-1,3-dione]
- inhibition at 0.1 µM (VEGF-R2 kinase domain; single test concentration 0.1 μM, read-out: VEGF-R2 percent inhibition): 35%
- inhibition at 0.1 µM (Aurora-A; single test concentration 0.1 μM, read-out: Aurora-A percent inhibition): 30%

Structure (SMILES): CC(C)(C)OC(=O)n1cccc1-c1cccc2c1C(=O)NC2 [Cpd 23, 2-(3-oxo-2,3-dihydro-1H-isoindol-4-yl)-pyrrole-1-carboxylic acid tert-butyl ester]
- inhibition at 100 µM (VEGF-R2 kinase domain; [3]): 46%
- inhibition at 100 µM (Aurora-A; [2]): 25%

Structure (SMILES): CN1Cc2cccc(-c3ccc[nH]3)c2C1=O [Cpd 25, 2-methyl-7-(1H-pyrrol-2-yl)-2,3-dihydro-isoindol-1-one]
- inhibition at 100 µM (VEGF-R2 kinase domain; [3]): 37%
- IC50 (Aurora-A): > 100 µM

Structure (SMILES): CC(C)(C)OC(=O)n1c(-c2cccc3c2C(=O)NC3)cc2ccccc21 [Cpd 26, 2-(3-oxo-2,3-dihydro-1H-isoindol-4-yl)-indole-1-carboxylic acid tert-butyl ester]
- inhibition at 100 µM (VEGF-R2 kinase domain; [3]): 34%
- inhibition at 100 µM (Aurora-A; [2]): 61%

Structure (SMILES): COc1ccc2c(c1)cc(-c1cccc3c1C(=O)NC3)n2C(=O)OC(C)(C)C [Cpd 27, 5-methoxy-2-(3-oxo-2,3-dihydro-1H-isoindol-4-yl)-indole-1-carboxylic acid tert-butyl ester]
- inhibition at 100 µM (VEGF-R2 kinase domain; [3]): 57%
- inhibition at 10 µM (Aurora-A; [2]): 48%
- IC50 [1]: 55.9 µM
- IC50 (A375 malignant melanoma): > 10 µM
- IC50 (HCT-116 colon carcinoma): > 10 µM
